Test results published in article PMC3528043, “Synthesis of New N,N’-Bis(5-arylidene-4-oxo-4,5-dihydrothiazolin-2-yl)piperazine Derivatives Under Microwave Irradiation and Preliminary Biological Evaluation” (Scientia Pharmaceutica, 2012).

Experiments:
Huh7 = assay: Cell survival assay, Huh7 (liver) tumor cell line; assay type: cell-based; settings: Homo sapiens, Huh-7; Huh7 liver tumor cells, 48 h exposure, survival by nuclei count; read-out: Cell lines IC50 Huh7
Experimental: (§1) Skin diploid fibroblastic cells were provided by BIOPREDIC International Company (Rennes, France). Caco-2 cells and Huh7 cells were obtained from the ECAC collection. Cells were grown according to ECAC recommendations. The RLEC-F1 clone was derived from an established rat biliary epithelial cell line as previously described. The toxicity test of the compounds on these cells was as follows: 4 × 10^3 cells were seeded in 96 multiwell plates and left for 24 h for attachment, spreading, and growing. Then they were exposed for 48 h to increasing concentrations of the compounds, ranging from […] in a final volume of 80 μL of culture medium. They were then fixed with 4% paraform-aldehyde solution and the nuclei were stained with […] and counted using automated imaging analysis (Simple PCI software).

Caco2 = assay: Cell survival assay, Caco2 (colon) tumor cell line; assay type: cell-based; settings: Homo sapiens, Caco-2; Caco2 colon tumor cells, 48 h exposure, survival by nuclei count; read-out: Cell lines IC50 Caco2
Experimental: as §1

MDA-MB 231 = assay: Cell survival assay, MDA-MB 231 (breast) tumor cell line; assay type: cell-based; settings: Homo sapiens; MDA-MB 231 breast tumor cells, 48 h exposure, survival by nuclei count; read-out: Cell lines IC50 MDA-MB 231
HCT 116 = assay: Cell survival assay, HCT 116 (colon) tumor cell line; assay type: cell-based; settings: Homo sapiens; HCT 116 colon tumor cells, 48 h exposure, survival by nuclei count; read-out: Cell lines IC50 HCT 116
PC3 = assay: Cell survival assay, PC3 (prostate) tumor cell line; assay type: cell-based; settings: Homo sapiens, PC-3; PC3 prostate tumor cells, 48 h exposure, survival by nuclei count; read-out: Cell lines IC50 PC3
NCI = assay: Cell survival assay, NCI (lung) tumor cell line; assay type: cell-based; settings: NCI lung tumor cells, 48 h exposure, survival by nuclei count; read-out: Cell lines IC50 NCI
[1] = tested on: Skin diploid fibroblastic cells; assay: Cell survival assay, normal fibroblasts; assay type: cell-based; settings: Fibroblast, 48 h exposure, survival by nuclei count, read-out: Cell lines IC50 Fibroblats
Experimental: as §1

CDK5/p25 = target: T1, CDK5/p25 (Homo sapiens, UniProt Q00535); assay: In vitro kinase inhibition assay CDK5/p25; assay type: biochemical; settings: for IC50: 15 μM ATP, 30°C, buffer C, histone H1
T1 construct: made in house

GSK-3α/β = assay: In vitro kinase inhibition assay GSK3α/β; assay type: biochemical, porcine; settings: for IC50: 15 μM ATP, 30°C, buffer A, GS-1 substrate
DYRK1A = DYRK1A (Homo sapiens, UniProt Q13627); assay: In vitro kinase inhibition assay DYRK1A; assay type: biochemical; settings: for IC50: 15 μM ATP, 30°C, buffer A, Woodtide substrate
DYRK2 = target: T2, DYRK2 (Homo sapiens, UniProt Q92630); assay: In vitro kinase inhibition assay DYRK2; assay type: biochemical; settings: for IC50: 15 μM ATP, 30°C, buffer A, Woodtide substrate
T2 sequence (Q92630 1-601): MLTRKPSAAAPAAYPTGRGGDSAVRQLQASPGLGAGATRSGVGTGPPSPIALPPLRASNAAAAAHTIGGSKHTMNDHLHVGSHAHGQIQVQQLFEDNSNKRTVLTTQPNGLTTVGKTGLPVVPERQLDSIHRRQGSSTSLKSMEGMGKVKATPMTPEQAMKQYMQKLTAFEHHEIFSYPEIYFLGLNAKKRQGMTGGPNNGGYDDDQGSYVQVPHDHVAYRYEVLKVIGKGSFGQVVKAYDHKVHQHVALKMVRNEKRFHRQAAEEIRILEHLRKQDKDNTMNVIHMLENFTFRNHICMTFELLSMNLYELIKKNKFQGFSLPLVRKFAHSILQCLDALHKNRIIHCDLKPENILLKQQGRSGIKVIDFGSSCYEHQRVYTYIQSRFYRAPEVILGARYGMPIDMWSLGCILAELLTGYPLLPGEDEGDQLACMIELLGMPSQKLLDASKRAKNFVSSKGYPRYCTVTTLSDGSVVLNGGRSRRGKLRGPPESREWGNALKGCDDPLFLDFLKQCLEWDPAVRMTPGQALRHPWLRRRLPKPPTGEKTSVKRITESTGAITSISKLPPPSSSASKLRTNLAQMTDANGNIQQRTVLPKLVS

CLK1 = CLK1 (Homo sapiens, UniProt P49759); assay: In vitro kinase inhibition assay CLK1; assay type: biochemical; settings: for IC50: 15 μM ATP, 30°C, buffer A, RS peptide
CLK2 = assay: In vitro kinase inhibition assay CLK2; assay type: biochemical, human; settings: for IC50: 15 μM ATP, 30°C, buffer A, RS peptide

CLK1, sequence (P49759 whole entry): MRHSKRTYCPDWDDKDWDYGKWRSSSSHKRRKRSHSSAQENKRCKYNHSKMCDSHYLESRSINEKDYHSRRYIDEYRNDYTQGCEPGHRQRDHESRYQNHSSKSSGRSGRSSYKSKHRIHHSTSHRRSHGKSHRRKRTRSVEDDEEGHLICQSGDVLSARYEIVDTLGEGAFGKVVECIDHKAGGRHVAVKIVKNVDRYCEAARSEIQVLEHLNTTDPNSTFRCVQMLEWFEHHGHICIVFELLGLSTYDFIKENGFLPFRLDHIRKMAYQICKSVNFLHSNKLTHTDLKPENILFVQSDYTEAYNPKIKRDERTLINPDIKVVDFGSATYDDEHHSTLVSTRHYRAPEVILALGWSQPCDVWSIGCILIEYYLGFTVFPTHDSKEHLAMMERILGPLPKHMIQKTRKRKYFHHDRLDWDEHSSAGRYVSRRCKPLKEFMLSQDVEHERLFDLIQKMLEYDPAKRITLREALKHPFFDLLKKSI
T1 sequence (Q00535 whole entry): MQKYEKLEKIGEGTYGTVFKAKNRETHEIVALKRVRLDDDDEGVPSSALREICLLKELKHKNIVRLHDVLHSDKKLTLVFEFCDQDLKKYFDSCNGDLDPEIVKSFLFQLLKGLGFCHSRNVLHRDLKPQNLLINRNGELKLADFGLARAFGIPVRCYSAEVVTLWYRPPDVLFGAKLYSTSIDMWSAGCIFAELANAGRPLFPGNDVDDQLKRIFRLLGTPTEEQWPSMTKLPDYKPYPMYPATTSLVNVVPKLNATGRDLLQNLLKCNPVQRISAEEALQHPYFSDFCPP
T1 sequence (Q15078 99-307 partner limits assumed): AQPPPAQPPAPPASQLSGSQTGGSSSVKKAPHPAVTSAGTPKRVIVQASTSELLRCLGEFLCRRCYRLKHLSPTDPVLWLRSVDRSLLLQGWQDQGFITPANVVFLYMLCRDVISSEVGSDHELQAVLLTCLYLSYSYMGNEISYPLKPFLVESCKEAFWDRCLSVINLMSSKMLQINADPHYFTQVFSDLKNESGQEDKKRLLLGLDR

IC50 (CDK5/p25)	IC50 (GSK-3α/β)	IC50 (DYRK1A)	melting point	Structure (SMILES)	IC50 (Huh7)	IC50 (Caco2)	IC50 (MDA-MB 231)	IC50 (HCT 116)	IC50 (PC3)	IC50 (NCI)	IC50 [1]	also measured
–	–	–	> 260 °C	O=C1N=C(N2CCN(C3=NC(=O)/C(=C/c4ccccc4)S3)CC2)S/C1=C\c1ccccc1 [Compound 5a, (5Z,5’Z)-2,2’-(Piperazine-1,4-diyl)bis(5-benzylidene-1,3-thiazol-4(5H)-one)]	> 25 µM	25 µM	> 25 µM	> 25 µM	> 25 µM	> 25 µM	> 25 µM	–
–	–	–	> 260 °C	COc1ccc(/C=C2\SC(N3CCN(C4=NC(=O)/C(=C/c5ccc(OC)cc5)S4)CC3)=NC2=O)cc1 [Compound 5b, (5Z,5’Z)-2,2’-(Piperazine-1,4-diyl)bis[5-(4-methoxybenzylidene)-1,3-thiazol-4(5H)-one]]	–	–	–	–	–	–	–	–
> 10 µM	> 10 µM	0.041 µM	220 to 222 °C	COc1ccc(/C=C2\SC(NCCCN3CCN(CCCNC4=NC(=O)/C(=C/c5ccc(OC)cc5)S4)CC3)=NC2=O)cc1 [Compound 5d, (5Z,5’Z)-2,2’-[Piperazine-1,4-diylbis(propane-3,1-diylimino)]bis[5-(4-methoxybenzylidene)-1,3-thiazol-4(5H)-one]]	–	–	–	–	–	–	–	Activity towards DYRK1A (in words) (DYRK1A): nanomolar inhibition potency; IC50 (DYRK2): 0.6 µM; IC50 (CLK1): 0.5 µM; IC50 (CLK2): 7.7 µM
–	–	–	222 to 224 °C	O=C1N=C(NCCCN2CCN(CCCNC3=NC(=O)/C(=C/c4ccc5c(c4)OCO5)S3)CC2)S/C1=C\c1ccc2c(c1)OCO2 [Compound 5e, (5Z,5’Z)-2,2’-[Piperazine-1,4-diylbis(propane-3,1-diylimino)]bis[5-(1,3-benzodioxol-5-ylmethylene)-1,3-thiazol-4(5H)-one]]	–	–	–	–	–	–	–	–

More lines, now with the values behind:

Structure (SMILES)	IC50 (CDK5/p25)	IC50 (GSK-3α/β)	IC50 (DYRK1A)	melting point	IC50 (Huh7)	IC50 (Caco2)	IC50 (MDA-MB 231)	IC50 (HCT 116)	IC50 (PC3)	IC50 (NCI)	IC50 [1]	also measured
COc1ccc(/C=C2\SC(=S)NC2=O)cc1 [Compound 3b, (5Z)-5-(4-Methoxybenzylidene)-2-thioxo-1,3-thiazolidin-4-one]	> 10 µM	> 10 µM	> 10 µM	–	> 25 µM	> 25 µM	> 25 µM	> 25 µM	> 25 µM	> 25 µM	> 25 µM	Activity towards CDK5/p25 (in words) (CDK5/p25): inactive; Activity towards GSK3α/β (in words) (GSK-3α/β): inactive; Activity towards DYRK1A (in words) (DYRK1A): inactive; Activity towards DYRK2 (in words) (DYRK2): inactive; IC50 (DYRK2): > 10 µM; Activity towards CLK1 (in words) (CLK1): inactive; IC50 (CLK1): > 10 µM; Activity towards CLK2 (in words) (CLK2): inactive; IC50 (CLK2): > 10 µM
O=C1NC(=S)S/C1=C\c1ccc2c(c1)OCO2 [Compound 3c, (5Z)-5-(1,3-Benzodioxol-5-ylmethylidene)-2-thioxo-1,3-thiazolidin-4-one]	> 10 µM	8.5 µM	0.07 µM	–	> 25 µM	> 25 µM	> 25 µM	> 25 µM	> 25 µM	> 25 µM	> 25 µM	–
O=C(O)CCN1C(=O)/C(=C/c2ccccc2)SC1=S [Compound 3d, 3-[(5Z)-5-Benzylidene-4-oxo-2-thioxo-1,3-thiazolidin-3-yl]propanoic acid]	–	–	–	224 to 226 °C	–	–	–	–	–	–	–	–
O=C(O)CCN1C(=O)/C(=C/c2ccc3c(c2)OCCO3)SC1=S [Compound 3g, 3-[(5Z)-5-(2,3-Dihydro-1,4-benzodioxin-6-ylmethylidene)-4-oxo-2-thioxo-1,3-thiazolidin-3-yl]propanoic acid]	–	–	–	226 to 228 °C	–	–	–	–	–	–	–	–
O=C1N=C(N2CCN(C3=NC(=O)/C(=C/c4ccc5c(c4)OCO5)S3)CC2)S/C1=C\c1ccc2c(c1)OCO2 [Compound 5c, (5Z,5’Z)-2,2’-(Piperazine-1,4-diyl)bis[5-(1,3-benzodioxol-5-ylmethylene)-1,3-thiazol-4(5H)-one]]	–	–	–	–	> 25 µM	20 µM	> 25 µM	> 25 µM	40 µM	> 25 µM	40 µM	–
